# Results as given in patent US20200270310A1, “MAFG AS A POTENTIAL THERAPEUTIC TARGET TO RESTORE CHEMOSENSITIVITY IN PLATINUM-RESISTANT CANCER CELLS” (FUNDACÓIN PARA LA INVESTIGACIÓN BIOMÉDICA DEL HOSPITAL …, priority 2017, published 2020).
# What was measured:
# [1] = system: H23S cells; test: Response to CDDP after overexpression of miR-7 candidate target genes; assay type: cell-based, human
# Method: (§1) cDNA plasmids transfection: a Myc-DDK-tagged ORF clone of MAFG, ELK-1 or ABCA1 and the negative control pCMV6 were used for in transient transfection (OriGene, USA). H23 and A2780 cells were plated onto 60-mm dishes at 6×10^5 cells/dish and transfected with a negative control, MAFG, ELK-1 or ABCA1 vectors (IDs: RC221486; RC208921 and RC221861) using jet-PEI DNA Transfection Reagent (PolyPlus Transfection, USA). For stable overexpression, lentiviruses carrying ELK-1 cDNA (Applied Biological Materials, Canada) were obtained by cotransfecting 15 μg of the specific lentiviral vector (pGIPZ-nonsilencing or pLenti-GIII-CMV-hELK-1-GFP-2A-Puro) and […] of each packaging vector (pCD-NL-BH and pMD2-VSV-G) in 10 million HEK 293T cells using Lipofectamine 2000 (Invitrogen, USA). Supernatants were taken at 48 hours posttransfection. A2780S cells were plated onto 60-mm dishes at 1×10^5 cells/dish and transduced with supernatant carrying nonsilencing or ELK-1 lentivirus, and polybrene was added (5 μg/ml).
# (§2) To determine if the expression of the miR-7 candidate target genes was linked to CDDP response, we conducted their in transient overexpression in the sensitive cells comparing their response to CDDP with their parental resistant and sensitive cell lines, both transfected with an empty vector.
# [2] = system: A2780S cells; test: as above; assay type: cell-based, human
# Method: as §1, §2
# [3] = target: T1, MAFG-Myc (Homo sapiens, UniProt O15525); test: Enzyme-linked oligonucleotide assay (ELONA) of aptamers and aptamer populations; assay type: binding
# T1 construct: Myc (C); DDK (FLAG)
# Method: FIG. 4. Analysis of the affinity of the aptamers against MAFG. (A) Quantification of aptamer-MAFG complexes by qPCR comparing absence (dot pattern) or presence (filled pattern) of MAFG protein. […] Bars represent the mean±SEM of 2-3 experiments (B) Specificity binding assay of aptamers to MAFG performed by ELONA. MAFG-myc was plated at 50ng/well in 96-well plates followed by incubation with 5′ digoxigenin-labeled aptamers from RND40, SEL3MAFG and SEL6MAFG. The figure represents the mean±SEM of 3 independent experiments. p<0.01. (C) Aptacytochemistry in HEK-293T cells transiently transfected with MAFG-myc. Cells overexpressing MAFG were incubated with 5′ Alexafluor 488-conjugated aptamers from RND40, SEL3MAFG or SEL6MAFG (upper panel) or Myc antibody (lower panel). Confocal microscopy images corresponding to the staining of nuclei with Hoechst (blue), antibodies (red), and aptamers (green) are shown. Arrowhead indicates positive cells. Bar=13 μm. (D) Study of individual aptamers affinity performed by ELONA. Recombinant MAFG was plated at 50 ng/well in 96-well plates followed by incubation with 5′ digoxigenin-labeled individual aptamers apMAGF3F, apMAFG6F and apMAFG11F. The figure represents the mean±SD of 2 independent experiments. (E) Secondary structures of aptamers apMAGF3F, apMAFG6F and apMAFG11F obtained by bioinformatics sequence analysis using the mFold software taking into account the lower free energy (AG).
# (ii) Enzyme-linked oligonucleotide assay (ELONA): Aptamers were labeled by PCR using 5′ digoxigenin-labeled F3/5′ digoxigenin-labeled R3 primers (IBA Life Sciences). To assess the enrichment of the selected population and the affinity of the individual aptamers for the target, MAFG-Myc (50 ng) was incubated with the rounds 3, 6 of aptamers or the RND40 library. OD405nm values were determined using a SpectraFluor microplate reader (TECAN, Barcelona, Spain).
# [4] = versus sensitive line with empty vector
# T1 sequence (O15525 whole entry): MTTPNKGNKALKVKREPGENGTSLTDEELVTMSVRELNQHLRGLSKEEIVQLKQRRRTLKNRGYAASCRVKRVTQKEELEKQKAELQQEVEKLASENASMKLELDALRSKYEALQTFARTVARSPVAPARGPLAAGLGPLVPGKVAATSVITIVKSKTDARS
Molecule,"CDDP RI after ABCA1 overexpression ([1]; versus empty vector, not statistically significant (p=0.796))","CDDP-RI after MAFG overexpression [1, 4]",response to CDDP after transient ELK-1 overexpression ([2]; 48 h of exposure to the drug),sensitivity to CDDP after stable ELK-1 overexpression ([2]; lentiviral transduction),"CDDP resistance index after MAFG overexpression [2, 4]","affinity against MAFG ([3]; Example 1, individual aptamers)","binding capacity to the target ([3]; Example 3, individual sequences from SEL6MAFG)",binding signal relative to BSA protein ([3]; individual sequences from SEL6MAFG)
"[NH2][Pt]([NH2])([Cl])[Cl] [CDDP, Cisplatin]",1.5,1.7,did not change the response to CDDP,did not change the sensitivity to CDDP,1.6,–,–,–
"GCGGATGAAGACTGGTGTCGATGCATGTGTAGTGCATTTCGAGCCGTTCTATTGGTGTGCCCTAAATACGAGCAAC (nucleic acid, chemistry not given here, DNA aptamer selected against the MAFG protein by SELEX) GCGGATGAAGACTGGTGTCGATGCATGTGTAGTGCATTTCGAGCCGTTCTATTGGTGTGCCCTAAATACGAGCAAC",–,–,–,–,–,high affinity,high binding capacity to the target in the nanomolar range,four times that of the BSA protein
